Results: patent US9890407B2, “Method for synthesizing cellulose in vitro” (University of Virginia Patent Foundation, priority 2013, dated 2018)

Test system: Rs BcsA-B complex
Experiment: Cellulose synthase sedimentation assay (3H-labeled water-insoluble cellulose, scintillation counting)
Assay type: biochemical, Rhodobacter sphaeroides
Details: increasing nucleotide concentrations, 0.5 mM UDP-Glc, PL-reconstituted BcsA-B
Description: (FIG. 4A) Enzyme-coupled cellulose synthesis assays were performed as described in FIG. 3 in the absence or presence of 0.1 mg/ml E. coli BesZ. […] Inset: Radioactive sedimentation assay performed with ND-reconstituted BcsA-B synthesizing cellulose in the absence or presence of BcsZ. […] The obtained product is quantified relative to the polymer formed in the absence of any nucleoside diphosphate.
FIG. 9A-9B (also referred to as Example 1, Supplementary FIG. 3): Cation selectivity and pH optimum of cellulose synthase. (FIG. 9A) Cellulose synthesis reactions were performed in the presence of 20 mM of the indicated cations or in the absence of any additional divalent cations with and without addition of 20 mM EDTA. The activities are shown relative to the activity in the presence of magnesium. […] All activity assays were performed for 45 min at 37° C. with 1 μM PLs-reconstituted. Rs BcsA-B and by quantifying the accumulation of ^3H-labeled water insoluble cellulose as described.
Following incubation at 37° C. for 45 min, the polymerization reaction was terminated by addition of 2% SDS and the water-insoluble polymer was pelleted by centrifugation at 15,000 rpm at room temperature (RT). The obtained pellet was resuspended in 20 μL 50 mM Tris pH 7.5, 0.1 M NaCl and spotted at the origin of a descending Whatman-2MM chromatography paper, which was developed in an aqueous solution of 60% ethanol. For enzymatic degradation, the pellet was resuspended in 20 μL 50 mM sodium acetate pH 4.5 and 100 mM NaCl and was digested with 0.1 mg/ml of endo-β-1,4- or endo-β-1,3 glucanase from Aspergillus niger (TCI) or Trichoderma sp. (Megazyme), respectively. Following paper chromatography, the high molecular weight polymer retained at the origin was quantified by scintillation counting.
Following synthesis, the reactions were treated as described above.

Structure (SMILES) | inhibition of cellulose synthesis by nucleoside diphosphates
Nc1ncnc2c1ncn2[C@@H]1O[C@H](COP(=O)(O)OP(=O)(O)O)[C@@H](O)[C@H]1O [adenosine-diphosphate] | do not inhibit
Nc1nc2c(ncn2[C@@H]2O[C@H](COP(=O)(O)OP(=O)(O)O)[C@@H](O)[C@H]2O)c(=O)[nH]1 [guanosine-diphosphate] | do not inhibit
